Measurements: patent US6428820B2, “Extracts of Hypericum perforatum and formulations containing them” (Indena S.p.A., priority 1999, dated 2002)
Converted amounts (≈) assume the structure as drawn.

Legend:
[1] = tested on: dopamine (DA) uptake; details: inhibition of 3H DA uptake
[2] = tested on: serotonin (5-HT) uptake; assay: Inhibition of 3H 5-HT (serotonin) uptake; assay type: biochemical; details: inhibition of 3H 5-HT uptake

| Compound | IC50 3H DA uptake [1] | IC50 3H-5 HT uptake [2] |
| --- | --- | --- |
| Cc1cc(O)c2c(=O)c3c(O)cc(O)c4c5c(O)cc(O)c6c(=O)c7c(O)cc(CO)c8c1c2c(c34)c(c65)c78 [Pseudo-hypericin] | 1.40 ± 0.13 µg/mL (≈ 2.69 µM) | 27.0 ± 1.1020 µg/mL (≈ 51.9 µM) |
| Hyperforin | 1.54 ± 0.23 µg/mL | 4.75 ± 0.79 µg/mL |
